Values joined by “and” are separate entries in the source; they are usually repeats but may differ in a detail not shown here. Identical values can stand only once. “Also recorded” adds a separate entry of the source.
Tests used:
[1] = tested on: normoglycaemic Sprague-Dawley rats; assay: Oral Glucose Tolerance Test (OGTT), samples administered intravenously; assay type: in vivo; details: for effect on blood glucose concentration (in words): IV OGTT vs DMSO control and/or metformin; for Hypoglycaemic effect compared with control: combinations of oleic:palmitic acids, IV OGTT vs DMSO
Method: Crude hexane, ethyl acetate, and methanol extracts (50 mg/kg BW) were administered intravenously to normoglycaemic Sprague-Dawley rats. The Oral Glucose Tolerance Test (OGTT) was then carried out using the Accu-Check Advantage II glucose kit to examine their effect on blood glucose concentration. […] A comparison was carried out using metformin (25 mg/kg BW).
Crude hexane, ethyl acetate, and methanol extracts (50 mg/kg BW) were administered intravenously to normoglycaemic Sprague-Dawley rats. The Oral Glucose Tolerance Test (OGTT) was then carried out using the Accu-Check Advantage II glucose kit to examine their effect on blood glucose concentration.
Crude hexane, ethyl acetate, and methanol extracts (50 mg/kg BW) were administered intravenously to normoglycaemic Sprague-Dawley rats.
The dosage of the extracted fr1dbe (30 mg/kg BW) and the glucose loads (1.75 g/kg BW were administered to the rats intravenously and orally, respectively. The extract was administered intravenously in order to reduce the amounts of sample that were used for the bioassays. The volume of the negative control/carrier agent (DMSO) used was approximately 0.3 mL.
In order to determine the efficacy of the isolated compounds, a known oral hypoglycaemic drug, metformin was used to do a comparison. Metformin was obtained from Sigma-Aldrich (Cat. No. d15, 095-9) and OGTTs were done via intravenous (FIGS. 7-13) and oral administration (FIGS. 14-16).

rats [2] = assay: Haemodynamic parameters (blood pressure and heart rate), non-invasive CODA machine; assay type: in vivo; details: for effect on mean arterial blood pressure (in words): vs DMSO; for effect on systolic blood pressure (in words): vs DMSO and captopril
From the text: A non-invasive method was used to measure the blood pressure and heart rate of the rats using the CODA machine from Kent Scientific Corporation. The rats were placed in a restraint (rat holder), to reduce agitation, and then placed on a warming pad of the machine (to reduce anxiety). The occlusion and volume pressure recording cuffs (O-cuff and VPR-cuff respectively) were placed onto the tail of the animal in that order respectively, in order to record the readings. The O-cuff terminates blood flow to the tail and then dilates slowly allowing for the physiological readings to be obtained from the returning blood flow, which is determined by the VPR sensor. The VPR-cuff is then used to measure the arterial pulsations as blood returns to the tail and it begins to swell. As the tail begins to swell the systolic blood pressure is measured, while the diastolic blood pressure is calculated when swelling stops.
The rats were trained within the restrain for three to four days prior to the measurements in order to reduce errors and an additional acclimatization period was done to allow the rats to relax prior to the basal blood pressure readings. […] The systolic and diastolic pressures, mean arterial pressure and the heart rate per minute was measured and about 20-25 readings were recorded and timed for approximately 30 minute including an allowance for acclimatization. […] Non-invasive blood pressure Measurement in Mice. […] Humana Press, which is herein incorporated by reference in its entirety.
A non-invasive method was used to measure the blood pressure and heart rate of the rats using the CODA-6-non-invasive machine from Kent Scientific Corporation. The rats were placed in a restraint (rat holder), to reduce agitation, which was then placed on a warming pad of the machine (to reduce anxiety). The occlusion and volume pressure recording cuffs (O-cuff and VPR-cuff respectively) were placed on to the tail of the animal in that order respectively, in order to record the readings. The O-cuff terminates blood flow to the tail and then dilates slowly allowing for the physiological readings to be obtained from the returning blood flow which is determined by the VPR sensor. The VPR-cuff then measured the arterial pulsations as blood returns to the tail and begins to swell. As the tail begins to swell the systolic blood pressure is measured, while the diastolic blood pressure is calculated when swelling stops.
The systolic and diastolic blood pressure, mean arterial pressure and the heart rate per minute was measured and about 20-25 readings were recorded and timed for approximately 30 minutes including acclimatization (FIGS. 17-28). […] Non-invasive blood pressure Measurement in Mice. […] Humana Press, which is herein incorporated by reference in its entirety.

rats [3] = assay: Post-prandial blood insulin level, Mercodia ELISA; assay type: in vivo; details: 30 mg/kg BW IV in DMSO
Method: This was carried out using the Mercodia ELISA Diagnostic kit in order to deduce the plasma insulin and glucagon levels respectively. These levels were used to determine the effect of the compound fr1dbe, on glucose homeostasis, when compared with a positive methformin and a DMSO negative control.
The samples were administered intravenously and orally at their respective dosages. After 15 minutes 75 mg/kg BW of sodium pentabarbitol was administered to the rats via an intraperitoneal injection. Blood samples were then obtained from the renal artery of the rats and collected in the (red) vacutainer for the serum sample. The samples were then centrifuged at 3,000 r.p.m. for 10 minutes and stored at −20° C. until used.
The Mercodia ELISA is a direct technique utilizing two monoclonal antibodies of the insulin molecule, one of which binds to the microtitre well, while the other binds to the insulin within the sample. When the unbound antibody is removed, a reaction with 3,3′,5,5′-tetramethylbenzidine aids in detection and spectophotometric analysis after the reaction is stopped.
The enzyme conjugate solution and wash buffer solution were prepared prior to the experiment. 10 μL of the calibrators, samples and controls were pipetted into the microtitre wells in duplicate. […] The ELISA plate was read immediately at an optical density at 450 nm and the results calculated. […]

Solubility = assay type: physicochemical
[4] = general description of eicosane; cited from earlier work
[5] = tested on: normoglycaemic Sprague-Dawley rats; assay: Oral Glucose Tolerance Test (OGTT), samples administered orally (gavage); assay type: in vivo; details: 900 mg/kg BW orally vs water
Method: The hypoglycaemic principles of E. camaldulensis were also administered orally. Preliminary OGTT experiments at 200 and 500 mg/kg BW were done, and as a result the dosage was increased to 700 and 900 mg/kg BW. The glucose tolerance curves (GTC) were obtained similarly to the OGTT done via intravenous administration, in that the compound was administered after the fasting blood sample was obtained, however via a oral gavage (FIGS. 14-16).
A comparison was done of the oral administration of the fatty acids with the respective oil on the blood glucose concentration by using the OGTT done in order to deduce their effect. Oleic and palmitic acids are major constituents of olive oil and coconut oil respectively. As such, comparisons were made after OGTTs were carried out to determine the effect of olive oil, coconut oil and the combined product (2.3 olive oil:1 coconut oil), on blood glucose concentration.
An analysis of glucose tolerance curves to compare olive oil, FR2DBS (oleic acid) and the combined oil (FR2DBW; 2.3 olive oil:1 coconut oil) at 900 mg/kg BW vs the control (water) all administered orally, was conducted. […] See also FIG. 29.

[6] = 30 mg/kg BW, 10 minute interval
[7] = 30 mg/kg BW, 15 minute interval
[8] = 30 mg/kg BW intravenously, 90 minute interval (glycaemic peak)
[9] = 50 mg/kg BW, 10 minute interval
[10] = 50 mg/kg BW, 20 minute interval
[11] = 30 mg/kg BW, 20 minute interval

CCCCCCCCCCCCCCCCCCCC [FR1DBE, eicosane]
blood glucose concentration ([1]; 30 mg/kg BW intravenously, 60 minutes interval (fasting region)): 3.7 ± 0.154 mmol/L
blood glucose concentration ([1]; 30 mg/kg BW intravenously, 90 minute interval (glycaemic peak), listed as fr1dbe): 4.71 ± 1.43 mmol/L
heart rate (rats [2]; [6]): 386 ± 7.91 beats/min
systolic blood pressure (SBP) (rats [2]; [6]): 118.42±1.87 mmHg
diastolic blood pressure (DBP) (rats [2]; [7]): 84.0±0.98 mmHg
systolic blood pressure (SBP) (rats [2]; [7]): 122.21±1.1 mmHg
effect on mean arterial blood pressure (in words) (rats [2]; 30 mg/kg BW): significantly reduced
effect on systolic blood pressure (in words) (rats [2]; 30 mg/kg BW): significantly reduced
blood insulin level (rats [3]; after 3½ hours of administration (210 minute interval)): 0.259 ± 0.03 µg/L
blood insulin level (rats [3]; after the 90 minute interval): 0.214 ± 0.02 µg/L
solubility in water (Solubility): not soluble in water
solubility in alcohol [4]: soluble in alcohol

CCCCCCCCCCCCCCCC(=O)O [FR1DBY, palmitic acid]
blood glucose concentration [1, 8]: 5.4 ± 0.163 mmol/L
difference in blood glucose from the control ([1]; 50 mg/kg BW IV, 90 minute interval, vs DMSO): 1.06 mmol/L
blood glucose concentration ([1]; 50 mg/kg BW intravenously, 90 minutes interval): 5.26 ± 0.183 mmol/L
effect on blood glucose concentration (in words) [1]: same effect as Metformin
effect on blood glucose concentration (in words) ([1]; listed as commercially available palmitic acid): able to significantly lower the blood glucose concentration
more effective dosage (hypoglycaemic effect) ([1]; IV OGTT, dose comparison): 50 mg/kg BW
Hypoglycaemic effect compared with control [1]: Significant
effect on blood glucose level (in words) [5]: able to significantly lower the area under the glucose tolerance curve; also recorded: able to lower the blood glucose concentration
diastolic blood pressure (DBP) (rats [2]; [9]): 81.93±1.74 mmHg
heart rate (rats [2]; [9]): 372.4 ± 3.07 beats/min
mean arterial pressure (MAP) (rats [2]; [9]): 95.67±1.77 mmHg
systolic blood pressure (SBP) (rats [2]; [9]): 123.42±1.27 mmHg
systolic blood pressure (SBP) (rats [2]; 50 mg/kg BW, 15 minute interval): 139.0±3.5 mmHg
diastolic blood pressure (DBP) (rats [2]; [10]): 93.79±3.14 mmHg
mean arterial pressure (MAP) (rats [2]; [10]): 104.23±3.08 mmHg

CCCCCCCC/C=C\CCCCCCCC(=O)O [FR2DBS, oleic acid]
blood glucose concentration [1, 8]: 5.23 ± 0.14 mmol/L
effect on blood glucose concentration (in words) [1]: significantly lower than the control
Hypoglycaemic effect compared with control [1]: Significant
effect on blood glucose level (in words) [5]: able to lower the blood glucose concentration
effect on blood glucose level (in words) ([5]; listed as oleic acid): able to reduce the post-prandial glucose level
diastolic blood pressure (DBP) (rats [2]; [6]): 93.42±1.74 mmHg
heart rate (rats [2]; [6]): 389 ± 7.27 beats/min
diastolic blood pressure (DBP) (rats [2]; [7]): 93.21±1.33 mmHg
mean arterial pressure (MAP) (rats [2]; [11]): 100.43±1.39 mmHg
effect on mean arterial blood pressure (in words) (rats [2]; 30 mg/kg BW): significant decrease
effect on systolic blood pressure (in words) (rats [2]; 30 mg/kg BW): very low and comparable to the effect caused by captopril

C[C@H](CS)C(=O)N1CCC[C@H]1C(=O)O [captopril, reference compound]
diastolic blood pressure (DBP) (rats [2]; [6]): 91.09±1.90 mmHg and 91±1.90 mmHg
heart rate (rats [2]; [6]): 413 beats/min and 412 beats/min
mean arterial pressure (MAP) (rats [2]; [6]): 110.86±1.71 mmHg
systolic blood pressure (SBP) (rats [2]; [6]): 131.35±1.50 mmHg and 130.92±1.50 mmHg and 130.93±1.50 mmHg
diastolic blood pressure (DBP) (rats [2]; [7]): 91.19±1.37 mmHg
heart rate (rats [2]; [7]): 401.0±6.28 BPM
diastolic blood pressure (DBP) (rats [2]; [11]): 93.30±1.58 mmHg
mean arterial pressure (MAP) (rats [2]; [11]): 105.07±2.06 mmHg
heart rate (rats [2]; 30 mg/kg BW, first 10 minutes): 399.93±6.91 BPM

CN(C)C(=N)N=C(N)N [metformin, reference compound]
decrease in the blood sugar level compared with the control ([1]; 25 mg/kg BW IV, 90 minute interval, vs DMSO): 1.26 mmol/L
blood glucose concentration ([1]; 25 mg/kg BW intravenously, 90 minute interval): 5.07 ± 0.089 mmol/L and 5.07 ± 0.09 mmol/L
blood glucose concentration ([1]; 25 mg/kg BW intravenously, 90 minute interval, listed as Metformin): 5.06 ± 0.089 mmol/L and 5.07 ± 0.089 mmol/L

Reference: patent US9278081B2, “Extracts from Eucalyptus camaldulensis for the treatment of hyperglycemia and hypertension” (The University of the West Indies, priority 2012, dated 2016)
